One may read the LD50 as the dose expected to kill half of the subjects tested. Read a low LD50 as greater toxicity.

The values below come from patent US4244952A, “Imidazo[2',1':2,3]-thiazolo[5,4-c]pyridines and composition thereof for treating immune diseases” (Yoshitomi Pharmaceutical Industries, Ltd., priority 1978, dated 1981).

For series [1], the system named is rosette forming cells (RFC) in the spleen and thymus. The series can be described thus: Activity for potentiating immune response in dd-mice (RFC number after SRBC sensitization in CY-treated mice). The class given is in vivo, male dd-strain mice. On the procedure:
(I) Activity for potentiating immune response in dd-mice
As test animals, male dd-strain mice (8 week old) were used by dividing them into groups of 6 members. Each mouse was orally administered once a day with cyclophosphamide (CY) at a dose of 20 mg/kg 1 and 0 day before the sensitization. The sensitization (day 0) was made by the intravenous injection of the antigen; 1×10^8 sheep red blood cells (SRBC). Each mouse was orally administered with test compounds (day 0-4). Five days after the sensitization, the number of rosette forming cells (RFC) in the spleen and thymus was measured in a usual manner.

Series [2] shares this test system. The experiment in a line: Activity for suppressing immune response in BALB/c mice (RFC number after SRBC sensitization). Type of series: in vivo, female BALB/c-strain mice. The following applies: 30 mg/kg p.o.; for RFC/organ Spleen: day 0 and 1; for RFC/organ Thymus: day 0 and 1, ** P < 0.01 vs. control. On the procedure: (II) Activity for suppressing immune response in BALB/c mice
As test animals, female BALB/c-strain mice (6 week old) were used by dividing them into groups of 6 members.
The sensitization (day 0) was made by the intraperitoneal injection the antigen; 5×10^8 sheep red blood cells (SRBC). Each mouse was orally administered with test compounds at day 0 and 1. Four days after the sensitization, the number of rosette forming cells (RFC) in the spleen and thymus was measured in a usual manner.

A short description of the next series: Acute toxicity. Conditions: mouse, in vivo, male dd-strain mice. How it is done:
Acute toxicity of the test compound was determined using male dd-strain mice (8 week old) as test animals. The test compound was administered orally or intraperitoneally.

The mark [3] stands for this setting: CY alone, 20 mg/kg p.o. once a day, 1 and 0 day before sensitization, dd-mice.
Setting [4] is: CY (20 mg/kg) + test compound 1 mg/kg p.o., day 0-4, * P < 0.05 vs. CY treatment.
The mark [5] stands for this setting: CY (20 mg/kg) + test compound 1 mg/kg p.o., day 0-4, ** P < 0.01 vs. CY treatment.
[6] abbreviates: CY (20 mg/kg) + test compound 10 mg/kg p.o., day 0-4.
The mark [7] stands for this setting: CY (20 mg/kg) + test compound 10 mg/kg p.o., day 0-4, * P < 0.05 vs. CY treatment.

Consider `O=P1(N(CCCl)CCCl)NCCCO1` (stereo not shown) [CY, cyclophosphamide, reference compound], for which, in series [1] (setting [3]), the “RFC/organ Spleen” value is on record as 101 × 10^4 and the “RFC/organ Thymus” value is recorded as 0.44 × 10^4. Also, the “number of RFC per spleen and thymus” value in series [1] (group treated with CY alone) was “reduced significantly”.

As to `O=[N+]([O-])c1ccc(CN2CCc3c(sc4nccn34)C2)cc1` [Compound B, 7-(4-nitrobenzyl)-5,6,7,8-tetrahydroimidazo[2',1':2,3]thiazolo-[5,4-c]pyridine], the “RFC/organ Thymus” value in series [1] (setting [4]) was 2.00 × 10^4; in series [1] (setting [7]), 1.56 × 10^4; in series [2], 0.14 × 10^4. The “RFC/organ Spleen” value in series [1] (setting [5]) is recorded as 291 × 10^4; in series [1] (setting [6]), 135 × 10^4; in series [2], 104 × 10^4. In addition, the LD50 in the series “Acute toxicity” (ip) is 600 to 1000 mg/kg; in the series “Acute toxicity” (po) it was 600 mg/kg.

With `CCOC(=O)N1CCc2c(sc3nc(-c4ccc([N+](=O)[O-])cc4)cn23)C1` [Compound A, 7-ethoxycarbonyl-2-(4-nitrophenyl)-5,6,7,8-tetrahydroimidazo[2',1':2,3]thiazolo[5,4-c]pyridine], the “RFC/organ Thymus” value in series [1] (setting [4]) is listed as 3.33 × 10^4; in series [1] (setting [7]) it was 3.11 × 10^4; in series [2] it was 0.00 × 10^4. The “RFC/organ Spleen” value in series [1] (setting [5]) is listed as 169 × 10^4; in series [1] (setting [6]) it was 220 × 10^4; in series [2], 174 × 10^4. Further, the LD50 was 600 mg/kg in the series “Acute toxicity” (ip) and 1000 mg/kg in the series “Acute toxicity” (po).
